By EC50 is commonly meant the concentration at which the effect is half-maximal. A lower EC50 goes with higher potency in that assay.

For this assay, the target named is T1, human parathyroid cell Ca^2+ receptor (hPCaR) (Homo sapiens, UniProt P41180).
T1 construct: expressed in transfected cells
T1 sequence (P41180 20-1078): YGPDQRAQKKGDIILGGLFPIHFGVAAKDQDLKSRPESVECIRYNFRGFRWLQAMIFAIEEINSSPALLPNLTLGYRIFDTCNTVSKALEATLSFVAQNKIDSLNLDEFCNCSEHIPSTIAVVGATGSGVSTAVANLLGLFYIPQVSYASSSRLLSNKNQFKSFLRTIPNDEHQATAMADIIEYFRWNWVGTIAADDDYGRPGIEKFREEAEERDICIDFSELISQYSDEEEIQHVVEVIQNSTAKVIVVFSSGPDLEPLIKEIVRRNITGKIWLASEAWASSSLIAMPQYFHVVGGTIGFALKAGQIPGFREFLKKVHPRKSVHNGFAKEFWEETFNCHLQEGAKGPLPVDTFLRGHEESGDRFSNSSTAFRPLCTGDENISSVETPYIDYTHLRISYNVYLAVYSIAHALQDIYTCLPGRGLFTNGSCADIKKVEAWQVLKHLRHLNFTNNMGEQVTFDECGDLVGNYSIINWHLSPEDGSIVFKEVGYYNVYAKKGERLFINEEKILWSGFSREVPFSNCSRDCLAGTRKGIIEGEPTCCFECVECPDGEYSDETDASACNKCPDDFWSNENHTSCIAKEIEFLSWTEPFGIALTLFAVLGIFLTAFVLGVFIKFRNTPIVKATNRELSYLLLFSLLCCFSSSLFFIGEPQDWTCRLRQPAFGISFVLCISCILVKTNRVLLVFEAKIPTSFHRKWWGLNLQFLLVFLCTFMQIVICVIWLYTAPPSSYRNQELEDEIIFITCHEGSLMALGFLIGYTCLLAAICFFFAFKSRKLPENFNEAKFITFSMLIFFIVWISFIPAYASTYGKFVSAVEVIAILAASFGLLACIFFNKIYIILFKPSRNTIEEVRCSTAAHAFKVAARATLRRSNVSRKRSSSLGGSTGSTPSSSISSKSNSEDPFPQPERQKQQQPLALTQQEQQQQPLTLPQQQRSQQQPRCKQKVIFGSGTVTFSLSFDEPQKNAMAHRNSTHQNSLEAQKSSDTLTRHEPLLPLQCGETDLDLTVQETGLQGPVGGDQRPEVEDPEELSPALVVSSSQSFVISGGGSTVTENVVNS
Put plainly: [Ca2+]i measurement with fluo-3 in HEK 293 4.0-7 cells stably transfected with hPCaR. It is filed as cell-based. The note with it: fluo-3 fluorescence (485/530 nm), effect on [Ca^2+]i. The protocol:
The activities of the compounds of the present invention on calcium receptors were measured. In one embodiment, the measurement was performed in accordance with the method described in Example 4 of Nemeth et al., PCT/US95/13704 (International Publication No. WO96/12697) herein incorporated by reference.
A 4.0-kb NotI-HindIII fragment of the human parathyroid cell Ca^2+ receptor (hPCaR) cDNA was subcloned into the mammalian expression vector pCEP4 (Invitrogen) containing the hygromycin-resistant gene as a selectable marker. This plasmid was transfected into HEK 293 cells by calcium phosphate precipitation. Transfected cells were grown in Dulbecco's modified Eagle's medium containing 10% fetal bovine serum and hygromycin (200 μg/mL). Hygromycin-resistant colonies were subcloned and assayed for hPCaR mRNA by solution hybridization using a ^32P-labeled RNA probe complementary to the (4.0 kb) hPCaR sequence (Garrett, et al., J. Biol. Chem. 270, 12919-12925 (1995)). Clone 7 was used to assess the effects of compounds on [Ca^2+]i. This stably transfected cell line is termed HEK 293 4.0-7. For measurements of [Ca^2+]i, the cells were recovered from tissue culture flasks by brief treatment with 0.02% EDTA and then washed and resuspended in PCB containing 1 mM CaCl2 and 0.1% Bovine Serum Albumin (“BSA”). The cells were loaded with fluo-3 by incubation for 30 min at 37° C., with parathyroid cell buffer (126 mM NaCl, 4 mM KCl, 1 mM MgSO4, 0.7 mM K2HPO/KH2PO4, 20 mM HEPES.NaOH (pH 7.45)) containing 0.5% BSA in lmM CaCl2 and 2 μM fluo-3 acetoxymethyl ester. The cells were subsequently washed, each test compound was added to the cells and the fluorescence was recorded by using excitation and emission wavelengths of 485 and 530 nm, respectively.
The compound `COc1ccc(CN[C@H](C)c2ccccc2)cc1-c1cccc(C(=O)O)c1` [2′-(methyloxy)-5′-((((1R)-1-phenylethyl)amino)methyl)-1,1′-biphenyl-3-carboxylic acid] returned a half-maximal effective concentration (EC50) not above 10 µM. For the compound `COc1ccc(CN[C@H](C)c2ccccc2)cc1-c1ccc(C(N)=O)cc1` [2′-(methyloxy)-5′-((((1R)-1-phenylethyl)amino)methyl)-1,1′-biphenyl-4-carboxamide], the half-maximal effective concentration (EC50) was not above 10 µM. Regarding `COc1ccc(CN[C@H](C)c2ccccc2)cc1-c1cccnc1NCCCN1CCOCC1` [3-(2-(methyloxy)-5-((((1R)-1-phenylethyl)amino)methyl)phenyl)-N-(3-(4-morpholinyl)propyl)-2-pyridinamine], the concentration giving a half-maximal response (EC50) is not above 10 µM.

Turning to `COc1ccc(CN[C@H](C)c2ccccc2)cc1-c1cccnc1NCC1CCCO1` (stereo partly drawn) [3-(2-(methyloxy)-5-((((1R)-1-phenylethyl)amino)methyl)phenyl)-N-(tetrahydro-2-furanylmethyl)-2-pyridinamine], the EC50 was not above 10 µM. In the case of `COc1ccc(CN[C@H](C)c2ccccc2)cc1-c1csc(N)n1` [4-(2-(methyloxy)-5-((((1R)-1-phenylethyl)amino)methyl)phenyl)-1,3-thiazol-2-amine], the EC50 is not above 10 µM. In the case of `COc1ccc([C@@H](C)NCc2cccc(-c3ccc(NC(=O)CCC(=O)O)nc3)c2)cc1` [4-((5-(3-((((1R)-1-(4-(methyloxy)phenyl)ethyl)amino)methyl)phenyl)-2-pyridinyl)amino)-4-oxobutanoic acid] it was not above 10 µM.

In the case of `C[C@@H](NCc1cccc(-c2ccc(NC(=O)CCC(=O)O)nc2)c1)c1ccccc1` [4-oxo-4-((5-(3-((((1R)-1-phenylethyl)amino)methyl)phenyl)-2-pyridinyl)amino)butanoic acid], the concentration for a half-maximal effect (EC50) was not above 10 µM.

The compound `COc1ccc(CN[C@H](C)c2cccc3ccccc23)cc1-c1cncc(C(N)=O)c1` [5-(2-(methyloxy)-5-((((1R)-1-(1-naphthalenyl)ethyl)amino)methyl)phenyl)-3-pyridinecarboxamide] returned a concentration for a half-maximal effect (EC50) not above 10 µM. In the case of `COc1ccc(CN[C@H](C)c2ccc3ccccc3c2)cc1-c1cnc(N)nc1` [5-(2-(methyloxy)-5-((((1R)-1-(2-naphthalenyl)ethyl)amino)methyl)phenyl)-2-pyrimidinamine] it was not above 10 µM; in that of `COc1ccc(CN[C@H](C)c2ccc3ccccc3c2)cc1-c1cncc(C(N)=O)c1` [5-(2-(methyloxy)-5-((((1R)-1-(2-naphthalenyl)ethyl)amino)methyl)phenyl)-3-pyridinecarboxamide], not above 10 µM. In the case of `COc1cccc([C@@H](C)NCc2ccc(OC)c(-c3ccc(C(=O)O)o3)c2)c1` [5-(2-(methyloxy)-5-((((1R)-1-(3-(methyloxy)phenyl)ethyl)amino)methyl)phenyl)-2-furancarboxylic acid] it was not above 10 µM. The same measure for `COc1ccc(CN[C@H](C)c2ccc(C)cc2)cc1-c1cnc(N)nc1` [5-(2-(methyloxy)-5-((((1R)-1-(4-methylphenyl)ethyl)amino)methyl)phenyl)-2-pyrimidinamine]: not above 10 µM; for `COc1ccc(CN[C@H](C)c2ccc(C)cc2)cc1-c1cncc(C(N)=O)c1` [5-(2-(methyloxy)-5-((((1R)-1-(4-methylphenyl)ethyl)amino)methyl)phenyl)-3-pyridinecarboxamide]: not above 10 µM; for `COc1ccc(CN[C@H](C)c2ccccc2)cc1-c1ccc(=O)n(CC(F)(F)F)c1` [5-(2-(methyloxy)-5-((((1R)-1-phenylethyl)amino)methyl)phenyl)-1-(2,2,2-trifluoroethyl)-2(1H)-pyridinone]: not above 10 µM.

With `COc1ccc(CN[C@H](C)c2ccccc2)cc1-c1ccc(N)nc1` [5-(2-(methyloxy)-5-((((1R)-1-phenylethyl)amino)methyl)phenyl)-2-pyridinamine], the EC50 is not above 10 µM.

Compound `COc1ccc(CN[C@H](C)c2ccccc2)cc1-c1cncc(C(N)=O)c1` [5-(2-(methyloxy)-5-((((1R)-1-phenylethyl)amino)methyl)phenyl)-3-pyridinecarboxamide] registered a concentration for a half-maximal effect (EC50) not above 10 µM.
